Measured values as given in patent publication US9023865B2, “Compounds that are ERK inhibitors” (Merck Sharp & Dohme Corp., priority 2011, dated 2015).

The compounds below were run against Active Human ERK2 (hERK2) (Homo sapiens (Human), UniProt P28482) (assay: Active Human ERK2 (hERK2) Activity Assay (IMAP-FP)). Conditions: phosphorylated active hERK2, 30 μM ATP; average; read-out: ERK 2 Human average IC50.
Assay type: biochemical
How it was run: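 Phosphorylation by activated human ERK2 (0.5 nM) at 30 μM ATP, peptide substrate 900 nM unlabeled with 80 nM labeled, proceeds 60 min. IMAP beads stop the reaction; after 60 min equilibration, product is measured by fluorescence polarization.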

Sequence of Active Human ERK2 (hERK2) (P28482 whole entry): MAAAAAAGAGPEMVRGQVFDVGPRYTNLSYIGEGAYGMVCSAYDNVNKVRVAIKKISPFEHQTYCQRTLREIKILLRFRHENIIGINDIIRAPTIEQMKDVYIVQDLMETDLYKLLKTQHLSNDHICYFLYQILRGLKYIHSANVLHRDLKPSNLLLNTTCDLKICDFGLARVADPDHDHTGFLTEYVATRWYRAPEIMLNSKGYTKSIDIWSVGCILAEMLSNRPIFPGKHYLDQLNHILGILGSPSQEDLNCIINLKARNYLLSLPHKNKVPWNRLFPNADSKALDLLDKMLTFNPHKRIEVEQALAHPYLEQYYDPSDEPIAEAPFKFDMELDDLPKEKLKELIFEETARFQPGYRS

SMILES | IC50 [nM]
C[C@@H](NC(=O)Nc1cc2[nH]nc(-c3ccn(C4COC4)n3)c2cn1)c1ccccc1 [Example 638] | 8.99
Cc1cc(-c2n[nH]c3cc(NC(=O)Nc4noc5cccnc45)ncc23)ccn1 [Example 493] | 0.428
Cc1cc(-c2n[nH]c3cc(NC(=O)NC4(c5ccncc5)CC4)ncc23)ccn1 [Example 356] | 130
C[C@@H](NC(=O)Nc1cc2[nH]nc(-c3ccnc(C#N)c3)c2cn1)c1ccc(F)cc1 [Example 258] | 1.76
C[C@@H](NC(=O)Nc1cc2[nH]nc(C3CCC3)c2cn1)c1ccc(F)cc1 [Example 144] | 3.46
Cc1cc(-c2n[nH]c3cc(NC(=O)NCc4cnccc4C)ncc23)ccn1 [Example 491] | 1.41
Cc1cc(-c2n[nH]c3cc(NC(=O)NCc4ccc(F)cc4)ncc23)ccn1 [Example 273] | 0.945
Cc1cc(-c2n[nH]c3cc(NC(=O)N[C@@H]4CN(C)C[C@H]4c4ccccc4C)ncc23)ccn1 [Example 215, 1-((3S,4R)-1-methyl-4-(o-tolyl)pyrrolidin-3-yl)-3-(3-(2-methylpyridin-4-yl)-1H-pyrazolo[4,3-c]pyridin-6-yl)urea] | 0.537
COc1ccc(-c2n[nH]c3cc(NC(=O)N[C@H](C)c4ccccc4)ncc23)cn1 [Example 650] | 0.318
Cc1cc(-c2n[nH]c3cc(NC(=O)N[C@H]4CN(C)[C@@H](C(F)F)[C@@H]4c4ccccc4)ncc23)ccn1 [Example 567] | 0.441
Cc1cc(-c2n[nH]c3cc(NC(=O)NCc4csc5ccc(Cl)cc45)ncc23)ccn1 [Example 488] | 5.85
C[C@@H](NC(=O)Nc1cc2[nH]nc(-c3ccc(S(C)(=O)=O)cc3)c2cn1)c1ccccc1 [Example 89, 1-{3-[4-(methylsulfonyl)phenyl]-1H-pyrazolo[4,3-c]pyridin-6-yl}-3-[(1R)-1-phenylethyl]urea] | 1.33
Cc1cc(-c2n[nH]c3cc(NC(=O)NC(C)C4CCOC4)ncc23)ccn1 (centres unmarked) [Example 528] | 12.7
Cc1cc(-c2n[nH]c3cc(NC(=O)NCc4c(F)cccc4F)ncc23)ccn1 [Example 52, 1-(2,6-difluorobenzyl)-3-[3-(2-methylpyridin-4-yl)-1H-pyrazolo[4,3-c]pyridin-6-yl]urea] | 0.655
Cc1cc(-c2n[nH]c3cc(NC(=O)N[C@@H]4CN(C)C[C@H]4C)ncc23)ccn1 [Example 206] | 3.59
Cc1cc(-c2n[nH]c3cc(NC(=O)NC(C)c4ccc(F)cn4)ncc23)ccn1 (centres unmarked) [Example 364] | 1.66
Cc1cc(-c2n[nH]c3cc(NC(=O)N[C@@H]4CCCOc5ccccc54)ncc23)ccn1 [Example 285] | 0.382
Cc1cc(-c2n[nH]c3cc(NC(=O)NC(C)(C)c4ccccn4)ncc23)ccn1 [Example 357] | 106

SMILES | IC50 [nM]
COC[C@H](NC(=O)Nc1cc2[nH]nc(-c3ccnc(F)c3)c2cn1)c1ccccc1 [Example 601] | 20.6
C[C@@H](NC(=O)Nc1cc2[nH]nc(-c3ccc(C#N)cc3)c2cn1)c1cccc(Cl)c1 [Example 84, 1-[(1R)-1-(3-chlorophenyl)ethyl]-3-[3-(4-cyanophenyl)-1H-pyrazolo[4,3-c]pyridin-6-yl]urea] | 6.11
Cc1cc(-c2n[nH]c3cc(NC(=O)NC4CCc5[nH]nc(C)c5C4)ncc23)ccn1 (centres unmarked) [Example 507] | 0.762
Cc1cc(-c2n[nH]c3cc(NC(=O)NCc4ncccc4C)ncc23)ccn1 [Example 480] | 1.22
Cc1cc(-c2n[nH]c3cc(NC(=O)NCC4(N(C)C)CCC4)ncc23)ccn1 [Example 193] | 125
COC[C@@H](NC(=O)Nc1cc2[nH]nc(-c3cc(C)on3)c2cn1)c1ccccc1 [Example 683] | 4.36
Cc1cc(-c2n[nH]c3cc(NC(=O)NCc4cnccc4C(F)(F)F)ncc23)ccn1 [Example 510] | 3.66
C[C@@H](NC(=O)Nc1cc2[nH]nc(Br)c2cn1)c1ccc(F)c(Cl)c1 [Example 68, 1-(3-bromo-1H-pyrazolo[4,3-c]pyridin-6-yl)-3-[(1R)-1-(3-chloro-4-fluorophenyl)ethyl]urea] | 106
Cc1cc(-c2n[nH]c3cc(NC(=O)N[C@H](CN)c4ccccc4)ncc23)ccn1 [Example 483] | 0.152
Cc1cc(-c2n[nH]c3cc(NC(=O)N[C@@H]4CCCc5ccncc54)ncc23)ccn1 [Example 263] | 1.8
Cc1nnc(-c2n[nH]c3cc(NC(=O)N[C@H](C)c4ccccc4)ncc23)o1 [Example 681] | 7.7
C[C@@H](NC(=O)Nc1cc2[nH]nc(CNCC(F)(F)F)c2cn1)c1ccccc1 [Example 561] | 15
Cc1cc(-c2n[nH]c3cc(NC(=O)NCc4csc(C)n4)ncc23)ccn1 [Example 43, 1-[3-(2-methylpyridin-4-yl)-1H-pyrazolo[4,3-c]pyridin-6-yl]-3-[(2-methyl-1,3-thiazol-4-yl)methyl]urea] | 0.934
CN1C[C@H](NC(=O)Nc2cc3[nH]nc(-c4ccc(F)cc4)c3cn2)[C@@H](c2ccccc2)C1 [Example 213] | 42.1
CN1CC[C@@H](CNC(=O)Nc2cc3[nH]nc(-c4ccc(F)cc4)c3cn2)C1 [Example 321] | 0.986
Cc1cc(-c2n[nH]c3cc(NC(=O)NCCO)ncc23)ccn1 [Example 573] | 7.22
C[C@@H](NC(=O)Nc1cc2[nH]nc(-c3cncnc3)c2cn1)c1ccc(F)cc1 [Example 671] | 2.33
COC[C@@H](NC(=O)Nc1cc2[nH]nc(-c3ccnc(C)c3)c2cn1)c1ccccc1 [Example 538] | 0.298

Next, values leading:

IC50 [nM] | SMILES
1.29 | Cc1cc(-c2n[nH]c3cc(NC(=O)NC[C@H](C)c4ccccc4)ncc23)ccn1 [Example 621]
1.53 | COc1ccnc([C@@H](C)NC(=O)Nc2cc3[nH]nc(-c4ccnc(C)c4)c3cn2)c1 [Example 231]
3.81 | CCNC(=O)Nc1cc2[nH]nc(-c3ccc(F)cc3)c2cn1 [Example 608]
0.873 | CO[C@@H](C)CNC(=O)Nc1cc2[nH]nc(-c3ccc(F)cc3)c2cn1 [Example 635]
0.745 | Cc1cc(-c2n[nH]c3cc(NC(=O)NCc4cscn4)ncc23)ccn1 [Example 432]
72.1 | C[C@@H](NC(=O)Nc1cc2[nH]nc(C3CCC3)c2cn1)c1ccccn1 [Example 149]
39.2 | CC[C@H](NC(=O)Nc1cc2[nH]nc(-c3ccnc(C)c3)c2cn1)c1ccc(Cl)cc1 [Example 413]
0.962 | Cc1cc(-c2n[nH]c3cc(NC(=O)NCc4c(F)cc(F)cc4F)ncc23)ccn1 [Example 519]
2.91 | Cc1cc(-c2n[nH]c3cc(NC(=O)N[C@H](C)c4ccc(Cl)c(C)c4)ncc23)ccn1 [Example 341]
232 | Cc1cc(-c2n[nH]c3cc(NC(=O)NC(C)c4nnco4)ncc23)ccn1 (centres unmarked) [Example 556]
0.411 | Cc1cc(-c2n[nH]c3cc(NC(=O)NCc4ccc(F)c(Cl)c4)ncc23)ccn1 [Example 56, 1-(3-chloro-4-fluorobenzyl)-3-[3-(2-methylpyridin-4-yl)-1H-pyrazolo[4,3-c]pyridin-6-yl]urea]
2.06 | Cn1cc(-c2n[nH]c3cc(NC(=O)NCC4CCC4)ncc23)cn1 [Example 590]
0.309 | Cc1cc(-c2n[nH]c3cc(NC(=O)NCc4ccccc4OC(F)F)ncc23)ccn1 [Example 441]
0.464 | C[C@@H](NC(=O)Nc1cc2[nH]nc(-c3cnn(C4COC4)c3)c2cn1)c1ccccc1 [Example 647]
0.717 | COc1ncc(-c2n[nH]c3cc(NC(=O)N[C@H](C)c4ccccc4)ncc23)cn1 [Example 313]
0.665 | C[C@@H](NC(=O)Nc1cc2[nH]nc(-c3ccn4ncnc4c3)c2cn1)c1ccccc1 [Example 294]
0.746 | COc1ncc(-c2n[nH]c3cc(NC(=O)N[C@H](C)c4ccc(F)cc4)ncc23)cn1 [Example 252]
16.1 | COCCNC(=O)Nc1cc2[nH]nc(-c3ccnc(OC(C)C)c3)c2cn1 [Example 604]
6.53 | C[C@@H](NC(=O)Nc1cc2[nH]nc(C(=O)NCC(F)(F)CN3CCOCC3)c2cn1)c1ccccc1 [Example 125]
15.1 | Cc1cc(-c2n[nH]c3cc(NC(=O)N[C@H]4COC[C@@H]4O)ncc23)ccn1 [Example 188]
0.586 | Cn1cc2cc(-c3n[nH]c4cc(NC(=O)NCc5ccc(F)c(Cl)c5)ncc34)ccc2n1 [Example 64, 1-(3-chloro-4-fluorobenzyl)-3-[3-(2-methyl-2H-indazol-5-yl)-1H-pyrazolo[4,3-c]pyridin-6-yl]urea]
1.76 | Cc1cc(-c2n[nH]c3cc(NC(=O)NCCC4=CCCC4)ncc23)ccn1 [Example 212]
8.28 | Cc1cc(-c2n[nH]c3cc(NC(=O)N[C@H]4CCCOc5ccccc54)ncc23)ccn1 [Example 284]
50 | CNC(c1n[nH]c2cc(NC(=O)N[C@H](C)c3ccccc3)ncc12)C(F)(F)F (stereo partly drawn) [Example 564, 1-((R)-1-phenylethyl)-3-(3-(2,2,2-trifluoro-1-(methylamino)ethyl)-1H-pyrazolo[4,3-c]pyridin-6-yl)urea]
10.2 | Cc1cc(-c2n[nH]c3cc(NC(=O)NC(C)(C)c4ccc(Cl)cc4)ncc23)ccn1 [Example 70, 1-[1-(4-chlorophenyl)-1-methylethyl]-3-[3-(2-methylpyridin-4-yl)-1H-pyrazolo[4,3-c]pyridin-6-yl]urea]
356 | Cc1cc(-c2n[nH]c3cc(NC(=O)NCC(=O)O)ncc23)ccn1 [Example 462]
3.34 | C[C@@H](NC(=O)Nc1cc2[nH]nc(-c3ccnc(F)c3)c2cn1)C1CCCCC1 [Example 593]
1.25 | Cc1cc(-c2n[nH]c3cc(NC(=O)NC4COc5ccccc5C4)ncc23)ccn1 (centres unmarked) [Example 467]
30.2 | CO[C@@H]1CN(C)C[C@H]1NC(=O)Nc1cc2[nH]nc(-c3ccc(F)cc3)c2cn1 [Example 318]
0.858 | Cc1cc(-c2n[nH]c3cc(NC(=O)N[C@H](C)c4ccc(F)cn4)ncc23)ccn1 [Example 503]

Same assay, conditions: read-out: AERK2 IC50 (Active human ERK2 Activity Assay)

SMILES | IC50 [nM]
C[C@@H](NC(=O)Nc1cc2[nH]nc(-c3ccc(S(C)(=O)=O)cc3)c2cn1)c1ccccc1 [Example 89, 1-{3-[4-(methylsulfonyl)phenyl]-1H-pyrazolo[4,3-c]pyridin-6-yl}-3-[(1R)-1-phenylethyl]urea] | 0.2 to 1.7
Cc1cc(-c2n[nH]c3cc(NC(=O)NCc4c(F)cccc4F)ncc23)ccn1 [Example 52, 1-(2,6-difluorobenzyl)-3-[3-(2-methylpyridin-4-yl)-1H-pyrazolo[4,3-c]pyridin-6-yl]urea] | 0.2 to 1.7
Cc1cc(-c2n[nH]c3cc(NC(=O)NCc4csc(C)n4)ncc23)ccn1 [Example 43, 1-[3-(2-methylpyridin-4-yl)-1H-pyrazolo[4,3-c]pyridin-6-yl]-3-[(2-methyl-1,3-thiazol-4-yl)methyl]urea] | 0.2 to 1.7

Continued, values first:

IC50 [nM] | SMILES
0.2 to 1.7 | Cc1cc(-c2n[nH]c3cc(NC(=O)NCc4ccc(F)c(Cl)c4)ncc23)ccn1 [Example 56, 1-(3-chloro-4-fluorobenzyl)-3-[3-(2-methylpyridin-4-yl)-1H-pyrazolo[4,3-c]pyridin-6-yl]urea]
0.2 to 1.7 | Cn1cc2cc(-c3n[nH]c4cc(NC(=O)NCc5ccc(F)c(Cl)c5)ncc34)ccc2n1 [Example 64, 1-(3-chloro-4-fluorobenzyl)-3-[3-(2-methyl-2H-indazol-5-yl)-1H-pyrazolo[4,3-c]pyridin-6-yl]urea]
